Experimental data taken from patent publication US20230247995A1, “FUNGICIDAL COMBINATIONS” (UPL Corporation Limited, priority 2022, published 2023).

Experiments:
Type in all cases: in vivo
Monilinia fructicola = test: Efficacy against brown rot affecting peach crop; settings: Ipflufenoquin 4, Pyrimethanil 8.9, combination 4 + 8.9 fl oz/a; for % Severity on Fruit: untreated 63.8; for % Disease incidence on Fruit: untreated 96
Experimental: Experiments were carried out to evaluate the efficacy of the fungicidal combination of ipflufenoquin and pyrimethanil against brown rot (Monilinia fructicola) affecting peach crop, as disclosed in Table 4.

Wilsonomyces spp. = test: Efficacy against Coryneum blight affecting peach crop; settings: Ipflufenoquin 4, Pyrimethanil 8.9, combination 4 + 8.9 fl oz/a; for % Severity on Fruit: untreated 69.9; for % Disease incidence on Fruit: untreated 100
Experimental: Experiments were carried out to evaluate the efficacy of the fungicidal combination of ipflufenoquin and pyrimethanil against Coryneum blight (Wilsonomyces spp.) affecting peach crop, as disclosed in Table 5.

Cladosporium sp. = test: Efficacy against scab affecting pecan (nuts); settings: untreated 33.8
Experimental: Experiments were carried out to evaluate the efficacy of the fungicidal combination of ipflufenoquin and pyrimethanil (both tank mix fungicidal combination and pre-mix formulation as disclosed in Example 1) against scab (Cladosporium sp.) affecting pecan (i.e., nuts), as disclosed in Table 6.

[1] = higher rates: Ipflufenoquin 5, Pyrimethanil 11.1, tank mix 5 + 11.1, pre-mix 12.5 fl oz/a
[2] = lower rates: Ipflufenoquin 4, Pyrimethanil 8.9, tank mix 4 + 8.9, pre-mix 10 fl oz/a

SMILES	% Severity on Fruit (Monilinia fructicola) [%]	% Disease incidence on Fruit (Monilinia fructicola) [%]	% Severity on Fruit (Wilsonomyces spp.) [%]	% Disease incidence on Fruit (Wilsonomyces spp.) [%]	% Severity on Nuts (Cladosporium sp.; [1]) [%]	% Severity on Nuts (Cladosporium sp.; [2]) [%]
Cc1cc(C)nc(Nc2ccccc2)n1 [Pyrimethanil, N-(4,6-dimethylpyrimidin-2-yl) aniline]	15.5	19.5	42.8	65.8	15.7	19.2
Cc1nc2c(F)c(F)ccc2cc1Oc1cccc(F)c1C(C)(C)O [Ipflufenoquin, 2-{2-[(7,8-difluoro-2-methyl-3-quinolyl)oxy]-6-fluorophenyl}propan-2-ol]	20.3	42.5	6.9	36.8	6.7	8.4
